The values below come from patent publication EP4778929A1, “NOVEL TYPE I TOPOISOMERASE INHIBITOR, AND PREPARATION METHOD THEREFOR AND USE THEREOF” (priority 2023, dated 2025).

Molecules are shown by their SMILES. Some results are limits rather than exact numbers.

Data set [1] relates to HCT116 cells. Briefly: Inhibition of cell proliferation by CTG (CellTiter-Glo) luminescence assay. Format: cell-based. Conditions: Homo sapiens, HCT-116; 72 h incubation, CellTiter-Glo; read-out: HCT116, IC50. A digest of the protocol:
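Nine-point 1:3 dilutions applied to HCT116 cells (2 000/well, McCoy's 5a + 10 % FBS) for 72 h at 37 °C, final DMSO 0.25 %. Viability read by CellTiter-Glo luminescence; % inhibition versus DMSO controls fitted to four-parameter logistic for IC50.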
(In general: Cellular ATP, detected with luciferase, serves as a proxy for viable cell number.)

Data set [2] concerns Human colon cancer HCT116 cells. Kind of data set: Subcutaneous xenograft model of human colon cancer HCT-116 cells. The following applies: day 21 post-treatment, 5 mg/kg, IV, BIW×3W. Format: in vivo, BALB/c nude mice. On the procedure:
Test Example 4. Pharmacodynamic Evaluation of Compound 2, Compound 250, and Compound 253 in a Subcutaneous Xenograft Model of Human Colon Cancer HCT-116 Cells in BALB/c Female Nude Mice
Human colon cancer HCT116 cells were cultured in vitro as monolayers in McCoys 5a medium supplemented with 10% fetal bovine serum and 1% penicillin/streptomycin/amphotericin B at 37 °C in a 5% CO2 incubator. Cells were routinely passaged twice a week using trypsin-EDTA digestion. When cells reached 80%-90% confluence and the required cell number was achieved, cells were harvested. HCT116 cells (0.1 mL, 5×10^6 cells) were subcutaneously inoculated into the right dorsal region near the upper forelimb of each mouse (BALB/c nude mice, female, 6-8 weeks old). Treatment was initiated when the average tumor volume reached approximately 158 mm^3. Tumor volume was measured twice weekly. At the end of the experiment, the tumor growth inhibition rate (TGI) was calculated as: TGI (%) = [1 - (average tumor volume at the end of treatment in a particular group - average tumor volume at the start of treatment in that group) / (average tumor volume at the end of treatment in the vehicle control group - average tumor volume at the start of treatment in the vehicle control group)] × 100%.
(§1) Experimental Groups and Dosing Regimen:
• 1, Vehicle control group • 2, Compound 2, 5 mg/kg, IV, BIW×3W • 3, Compound 250, 5 mg/kg, IV, BIW×3W • 4, Compound 253, 5 mg/kg, IV, BIW×3W
(A xenograft is tissue or cells of one species grown in another, often human tumour cells in immunodeficient mice.)

Data set [3] is described as follows: in vivo. Conditions: male, CD-1, mouse. On the procedure: Test Example 3. Pharmacokinetic Study for Determining Compound Concentrations in Mice by LC-MS/MS
Principle: LC-MS/MS is used to quantify the plasma concentrations of the test article at successive time points, generating an in-vivo pharmacokinetic profile.
Procedure: The test compound was dissolved in DMSO to prepare a 10 mg/mL stock solution. This stock was further diluted to 1 mg/mL with a vehicle consisting of 10 % DMSO + 10 % Solutol HS-15 + 80 % saline. Male CD-1 mice (JH Laboratory Animal Co., LTD) were employed; six animals were assigned per compound group. […] Serial blood samples (~50 µL whole blood, K2EDTA anticoagulant) were collected at 0.083, 0.25, 0.5, 1, 2, 4, 8 and 24 h (three mice per time point in a crossover design). Blood was centrifuged at 6 000 g for 5 min at 4 °C; plasma was harvested and stored at -70 °C until analysis. Plasma drug concentrations were determined by LC-MS/MS.
Calibration Curve and QC Preparation: Working solutions were prepared by dilution with MeOH:H2O (1:1). For each calibration or QC level, 3 µL of working solution was spiked into 57 µL of blank mouse plasma.
Sample Processing: To 30 µL of plasma was added 200 µL of methanol containing the internal standard (propranolol, 40 ng mL^-1). After vortex-mixing for 1 min, the mixture was centrifuged at 12 000 rpm for 10 min. A 100 µL aliquot of the supernatant was transferred to a clean plate for injection.
Pharmacokinetic Analysis: Concentration-time data were analyzed with WinNonlin 8.2 using a non-compartmental approach to derive PK parameters including Cmax, Tmax, AUC and terminal elimination half-life (t1/2). AUC was calculated by the linear-up/log-down trapezoidal method. Table 3. Pk parameters of compounds

Data set [4] relates to Human colon cancer CR00090 cells. Kind of data set: CR00090 human colon cancer model (subcutaneous). Format: in vivo, NPSG mice. Conditions: day 28 post-treatment, 5 mg/kg, IV, BIW×4W. On the procedure: Test Example 5: Pharmacodynamic Evaluation of Compound 117, Compound 250, and Compound 253 in the CR00090 Human Colon Cancer Model
Human colon cancer CR00090 cells were thawed, counted, and mixed with Matrigel at a 1:1 ratio. Then, 0.1 mL (5×10^5 cells) of CR00090 cells were subcutaneously inoculated into the right dorsal region near the upper forelimb of each mouse (NPSG mice, female, 6-8 weeks old). Treatment was initiated when the average tumor volume reached approximately 84 mm^3. Tumor volume was measured twice weekly. At the end of the experiment, the tumor growth inhibition rate (TGI) was calculated as: TGI (%) = [1 - (average tumor volume at the end of treatment in a particular group - average tumor volume at the start of treatment in that group) / (average tumor volume at the end of treatment in the vehicle control group - average tumor volume at the start of treatment in the vehicle control group)] × 100%.
as §1
• 1, Vehicle control group • 2, Compound 117, 5 mg/kg, IV, BIW×4W • 3, Compound 250, 5 mg/kg, IV, BIW×4W • 4, Compound 253, 5 mg/kg, IV, BIW×4W

By IC50 is commonly meant the concentration that inhibits the measured activity by half. The bioavailability is dose-corrected exposure relative to a reference, in per cent. In general, AUC(0-t) refers to exposure summed from dosing to a finite time, without extrapolation to infinity. A word on the Cmax: it is the highest concentration seen after dosing. As usually defined, the clearance is the rate of elimination divided by the concentration. A low value points to a low capacity for elimination. What is called half-life is how long it takes for the measured level to halve. Read a high half-life as slow loss. In general, Tmax refers to the time from dosing to the highest level. Regarding `CC[C@@]1(O)C(=O)OCc2c1cc1n(c2=O)Cc2c-1c(=O)c1cc(F)ccc1n2[C@@H]1CCN(C)C1` [Example 250, (S)-4-ethyl-8-fluoro-4-hydroxy-11-((R)-1-methylpyrrolidin-3-yl)-1,12-dihydro-14H-pyrano[3',4':6,7]indolizino[2,1-b] quinoline-3,6,14(4H,11H)-trione], in data set [1], the IC50 was under 20 nM. In addition, the TGI in data set [2] stood at 83.1%. Moreover, the tumor volume in data set [2] (vehicle control 1146 mm^3) is 326 mm^3. Further, the bioavailability in data set [3] came out at 35.9%. In data set [3] (iv, 2 mg/kg), the AUC(0-t) was determined as 543 ng·h/mL, the Cmax is 1210 ng/mL, the clearance came to 62.9 mL/min/kg and the half-life is 17.9 min. Also, in data set [3] (po, 20 mg/kg), the AUC(0-t) stood at 1930 ng·h/mL, the Cmax stood at 1120 ng/mL, the Tmax stood at 30 min and the half-life is 231 min. Further, the TGI in data set [4] amounted to 80.0%. Moreover, the tumor volume in data set [4] (vehicle control 1093 mm^3) was 286 mm^3.
